Measurements as given in US12491182B2, “Polymorphs of triazole antifungal compound PC945” (Pulmocide Limited, priority 2019, dated 2025).
Marks after values point to notes of the source that are not given here.

Tests used:
Format in all cases: physicochemical
[1] = Fate of Form 2 slurried in single solvents, acetone, water and acetone/water mixtures, XRPD
Description: In order to determine the influence of water in determining the output from such conditioning experiments, the behaviour of the Form 2 polymorph was examined in nominally dry organic media and also in monophasic, aqueous mixtures with water miscible solvents.
The same result was also obtained when the conditioning medium was either neat acetone (Table 9, Entries 1 and 6) or water alone (Table 9, Entries 5 and 10). However, in acetone-water mixtures at 50° C. over 24 hr there was clear evidence that in two instances Form 2 had been transformed into Form 1 (Table 9, Entries 7 and 9).

[2] = Fate of Form 2 slurried in 1,4-dioxane/water mixtures, XRPD; details: 1,4-dioxane
Description: In the presence of 10% water the Form 1 polymorph is evident in the slurry mixture within an hour at 25° C. […] This ternary system behaved similarly at 50° C. However, at the higher temperature of 65° C. the rate of turnover is increased such that Form 1 was generated after 3 hr. Consistent with the data obtained from the experiments described above, increasing the proportion of water to 80% in this system was sufficient to halt the polymorphic interconversion at 25° C., 50° C. and even at 65° C.

[3] = Fate of Form 2 slurried in MEK/water mixtures, XRPD; details: MEK, 25 °C, 24 hours
Description: (Table 12). It was observed that Form 2 integrity was maintained for at least 24 hours at the lower temperature until the water content exceeded 6%, despite an increase in solubility of Compound I from 19 to 30 mg/ml (data not shown).

## Cc1cc(N2CCN(c3ccc(C(=O)Nc4ccc(F)cc4)cc3)CC2)ccc1OC[C@@H]1CO[C@@](Cn2cncn2)(c2ccc(F)cc2F)C1 [Form 2, 4-(4-(4-(((3R,5R)-5-((1H-1,2,4-triazol-1-yl)methyl)-5-(2,4-difluorophenyl)tetrahydrofuran-3-yl)methoxy)-3-methylphenyl)piperazin-1-yl)-N-(4-fluorophenyl)benzamide]
[1]; acetone, water 0 vol %, 25 °C, 1 and 4 hr
  Polymorphic Form by XRPD: 2
[1]; acetone, water 0 vol %, 25 °C, 24 hr
  Polymorphic Form by XRPD: 2
[1]; acetone, water 0 vol %, 50 °C, 1 and 4 hr
  Polymorphic Form by XRPD: 2
[1]; acetone, water 0 vol %, 50 °C, 24 hr
  Polymorphic Form by XRPD: 2
[1]; acetone/water, water 10 vol %, 25 °C, 1 and 4 hr
  Polymorphic Form by XRPD: 2
[1]; acetone/water, water 10 vol %, 25 °C, 24 hr
  Polymorphic Form by XRPD: 2
[1]; acetone/water, water 10 vol %, 50 °C, 1 and 4 hr
  Polymorphic Form by XRPD: 2
[1]; acetone/water, water 10 vol %, 50 °C, 24 hr
  Polymorphic Form by XRPD: 1
[1]; acetone/water, water 20 vol %, 25 °C, 1 and 4 hr
  Polymorphic Form by XRPD: 2
[1]; acetone/water, water 20 vol %, 25 °C, 24 hr
  Polymorphic Form by XRPD: 2
[1]; acetone/water, water 20 vol %, 50 °C, 1 and 4 hr
  Polymorphic Form by XRPD: 2
[1]; acetone/water, water 20 vol %, 50 °C, 24 hr
  Polymorphic Form by XRPD: 2
[1]; acetone/water, water 40 vol %, 25 °C, 1 and 4 hr
  Polymorphic Form by XRPD: 2
[1]; acetone/water, water 40 vol %, 25 °C, 24 hr
  Polymorphic Form by XRPD: 2
[1]; acetone/water, water 40 vol %, 50 °C, 1 and 4 hr
  Polymorphic Form by XRPD: 2
[1]; acetone/water, water 40 vol %, 50 °C, 24 hr
  Polymorphic Form by XRPD: 1
[1]; heptane, TBME, toluene or cyclohexane as sole solvent, 25 or 50 °C, 24 hr
  change in crystal structure on suspension in sole solvent: no perceptible change in crystal structure
[1]; water 100 vol %, 25 °C, 1 and 4 hr
  Polymorphic Form by XRPD: 2
[1]; water 100 vol %, 25 °C, 24 hr
  Polymorphic Form by XRPD: 2
[1]; water 100 vol %, 50 °C, 1 and 4 hr
  Polymorphic Form by XRPD: 2
[1]; water 100 vol %, 50 °C, 24 hr
  Polymorphic Form by XRPD: 2
[2]; 10% water, 25 °C, 1 hr, trace of Form 2 remaining
  Polymorphic Form by XRPD: 1^†
[2]; 10% water, 25 °C, 3 hr, trace of Form 2 remaining
  Polymorphic Form by XRPD: 1^†
[2]; 10% water, 25 °C, 6 hr, trace of Form 2 remaining
  Polymorphic Form by XRPD: 1^†
[2]; 10% water, 25 °C, 24 hr, trace of Form 2 remaining
  Polymorphic Form by XRPD: 1^†
[2]; 10% water, 50 °C, 24 hr
  Polymorphic Form by XRPD: 1
[2]; 40% water, 25 °C, 1 hr
  Polymorphic Form by XRPD: 2
[2]; 40% water, 25 °C, 3 hr
  Polymorphic Form by XRPD: 2
[2]; 40% water, 25 °C, 6 hr
  Polymorphic Form by XRPD: 2
[2]; 40% water, 25 °C, 24 hr
  Polymorphic Form by XRPD: 1
[2]; 40% water, 50 °C, 1 hr
  Polymorphic Form by XRPD: 2
[2]; 40% water, 50 °C, 3 hr
  Polymorphic Form by XRPD: 2
[2]; 40% water, 50 °C, 6 hr
  Polymorphic Form by XRPD: 2
[2]; 40% water, 50 °C, 24 hr
  Polymorphic Form by XRPD: 1
[2]; 40% water, 65 °C, 1 hr
  Polymorphic Form by XRPD: 2
[2]; 40% water, 65 °C, 3 hr
  Polymorphic Form by XRPD: 1
[2]; 40% water, 65 °C, 6 hr
  Polymorphic Form by XRPD: 1
[2]; 40% water, 65 °C, 24 hr
  Polymorphic Form by XRPD: 1
[2]; 80% water, 25 °C, 1 hr
  Polymorphic Form by XRPD: 2
[2]; 80% water, 25 °C, 3 hr
  Polymorphic Form by XRPD: 2
[2]; 80% water, 25 °C, 6 hr
  Polymorphic Form by XRPD: 2
[2]; 80% water, 25 °C, 24 hr
  Polymorphic Form by XRPD: 2
[2]; 80% water, 50 °C, 1 hr
  Polymorphic Form by XRPD: 2
[2]; 80% water, 50 °C, 3 hr
  Polymorphic Form by XRPD: 2
[2]; 80% water, 50 °C, 6 hr
  Polymorphic Form by XRPD: 2
[2]; 80% water, 50 °C, 24 hr
  Polymorphic Form by XRPD: 2
[2]; 80% water, 65 °C, 1 hr
  Polymorphic Form by XRPD: 2
[2]; 80% water, 65 °C, 3 hr
  Polymorphic Form by XRPD: 2
[2]; 80% water, 65 °C, 6 hr
  Polymorphic Form by XRPD: 2
[2]; 80% water, 65 °C, 24 hr
  Polymorphic Form by XRPD: 2
[3]; water 1 % vol
  Polymorphic Form by XRPD: 2
[3]; water 2 % vol
  Polymorphic Form by XRPD: 2
[3]; water 4 % vol
  Polymorphic Form by XRPD: 2
[3]; water 6 % vol
  Polymorphic Form by XRPD: 2
[3]; water 8 % vol
  Polymorphic Form by XRPD: 1
